Reference: patent US9029366B2, “Substituted bicyclic alkoxy pyrazole analogs as allosteric modulators of mGluR5 receptors” (Vanderbilt University, priority 2012, dated 2015)
Read-outs that look alike come from different tables or passages of the source.

Target: human mGluR5 (Homo sapiens, UniProt P41594)
Assay: Cell-based functional Ca2+ mobilization assay (FDSS), potentiation of glutamate EC20 response, HEK293A cells transfected with human mGluR5a (H10H or H12H cell line)
Settings: in presence of glutamate EC20, ** = compound is an antagonist; for Emax (%) / Emax: % of maximal glutamate response; for Emax: HEK293-A
Protocol: Human embryonic kidney (HEK) cells transfected with rat mGluR5 were plated in clear bottom assay plates for assay in a Functional Drug Screening System (FDSS). In the alternative assay, HEK cells transfected with human mGluR5 were plated for assay in the FDSS. In some cases the HEK cells transfected with human mGluR5 are the H10H cell line. Alternatively, the HEK cells transfected with human mGluR5 are the H12H cell line. […] The cells were loaded with a Ca^2+-sensitive fluorescent dye (e.g., Fluo-4), and the plates were washed and placed in the FDSS instrument. After establishment of a fluorescence baseline for about three seconds, the compounds of the present invention were added to the cells, and the response in cells was measured. Five minutes later, an mGluR5 agonist (e.g., glutamate, 3,5-dihydroxyphenylglycine, or quisqualate) was added to the cells, and the response of the cells was measured.
The above described assay can be operated in two modes. In the first mode, a range of concentrations of the present compounds were added to cells, followed by a single fixed concentration of agonist. If a compound acted as a potentiator, an EC50 value for potentiation and a maximum extent of potentiation by the compound at this concentration of agonist was determined by non-linear curve fitting. In the second mode, several fixed concentrations of the present compounds were added to various wells on a plate, followed by a range of concentrations of agonist for each concentration of present compound; the EC50 values for the agonist at each concentration of compound were determined by non-linear curve fitting. A decrease in the EC50 value of the agonist with increasing concentrations of the present compounds (a leftward shift of the agonist concentration-response curve) is an indication of the degree of mGluR5 potentiation at a given concentration of the present compound. An increase in the EC50 value of the agonist with increasing concentrations of the present compounds (a rightward shift of the agonist concentration-response curve) is an indication of the degree of mGluR5 antagonism at a given concentration of the present compound. The second mode also indicates whether the present compounds also affect the maximum response to mGluR5 to agonists.
Human mGluR5a cDNA in pCMV6-XL6 mammalian expression plasmid was purchased from OriGene Technologies, Inc. (catalogue number SC326357) and subcloned into pcDNA3.1(−). Human embryonic kidney (HEK)293A cells were then transfected with human mGluR5a pcDNA3.1(−) using LipofectAmine2000 (Invitrogen) and monoclones were selected and tested for functional response using a Ca^2+ mobilization assay. Monoclones were named for the species (“H” for human) plus the location on the plate (e.g. “10H”).
HEK cells transfected with the human mGluR5a receptor (H10H or H12H cell line) were plated at 15,000 cells/well in clear-bottomed poly-D-lysine-coated assay plates (BD Falcon) in glutamate-glutamine-free growth medium and incubated overnight at 37° C. and 5% CO2. Cell-lines used were either the H10H or H12H cell-lines expressing the human mGluR5 receptor. The following day, the growth medium was removed and the cells were washed with assay buffer containing 1× Hank's balanced salt solution (Invitrogen, Carlsbad, Calif.), 20 mM HEPES, 2.5 mM probenecid, pH 7.4 and left with 20 μL of this reagent. Following this step, the cells were loaded with calcium indicator dye, fluo-4 AM, to a final concentration of 2 μM and incubated for 40-45 min at 37° C. The dye solution was removed and replaced with assay buffer. Cell plates were held for 10-15 min at room temperature and were then loaded into the Functional Drug Screening System 6000 (FDSS 6000, Hamamatsu, Japan).
After establishment of a fluorescence baseline for about 3 seconds, the compounds of the present invention were added to the cells, and the response in cells was measured.

[1] = H10H cell line expressing recombinant human mGluR5
[2] = H10H cell line expressing recombinant human mGluR5, read-out: pEC50 (converted)

Sequence of human mGluR5 (P41594 21-1180 isoform P41594-2 limits assumed): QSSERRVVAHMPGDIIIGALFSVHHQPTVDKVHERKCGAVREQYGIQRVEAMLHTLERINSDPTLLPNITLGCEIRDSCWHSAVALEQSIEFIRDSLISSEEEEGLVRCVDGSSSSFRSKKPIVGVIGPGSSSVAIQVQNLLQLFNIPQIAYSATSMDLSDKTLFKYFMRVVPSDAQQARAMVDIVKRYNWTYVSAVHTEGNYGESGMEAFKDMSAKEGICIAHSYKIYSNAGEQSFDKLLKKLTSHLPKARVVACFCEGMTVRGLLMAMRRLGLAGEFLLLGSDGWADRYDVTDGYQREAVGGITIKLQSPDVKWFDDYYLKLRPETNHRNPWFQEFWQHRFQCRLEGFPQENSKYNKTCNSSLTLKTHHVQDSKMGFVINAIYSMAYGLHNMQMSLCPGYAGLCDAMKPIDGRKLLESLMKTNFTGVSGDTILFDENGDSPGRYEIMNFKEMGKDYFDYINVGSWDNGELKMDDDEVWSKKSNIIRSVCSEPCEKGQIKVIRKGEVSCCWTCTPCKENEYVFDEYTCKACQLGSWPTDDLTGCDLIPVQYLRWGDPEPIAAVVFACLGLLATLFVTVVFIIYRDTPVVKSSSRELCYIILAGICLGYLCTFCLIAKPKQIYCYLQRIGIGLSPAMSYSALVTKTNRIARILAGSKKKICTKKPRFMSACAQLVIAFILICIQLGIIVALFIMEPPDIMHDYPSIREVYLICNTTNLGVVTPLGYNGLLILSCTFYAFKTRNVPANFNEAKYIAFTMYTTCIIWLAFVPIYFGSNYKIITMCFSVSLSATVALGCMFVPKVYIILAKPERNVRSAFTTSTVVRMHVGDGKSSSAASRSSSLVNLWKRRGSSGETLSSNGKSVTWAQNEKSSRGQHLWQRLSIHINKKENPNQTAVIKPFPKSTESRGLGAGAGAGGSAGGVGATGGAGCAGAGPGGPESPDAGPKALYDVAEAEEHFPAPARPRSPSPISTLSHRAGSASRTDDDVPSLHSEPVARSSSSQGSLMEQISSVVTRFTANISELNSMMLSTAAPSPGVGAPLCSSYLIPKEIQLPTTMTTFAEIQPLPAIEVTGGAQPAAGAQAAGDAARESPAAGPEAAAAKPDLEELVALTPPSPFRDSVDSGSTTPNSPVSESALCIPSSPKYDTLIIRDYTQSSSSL

Row | Molecule | Emax (%) [1] [%] | pEC50 [1] | EC50 [2] [nM] | Emax [1] [%] | EC50 (pEC50, H10H cell line expressing recombinant human mGluR5) [nM]
1 | 1-(2-(benzyloxy)-6,7-dihydropyrazolo[1,5-a]pyrazin-5(4H)-yl)-2-(tert-butylamino)ethanone [Example B24] | 28 | <4.52 | – | – | –
2 | O=C(c1ccc(F)cc1)N1CCn2nc(OCc3ccccc3)cc2C1 [Example B1, 2-(benzyloxy)-5-[(4-fluorophenyl)carbonyl]-4,5,6,7-tetrahydropyrazolo[1,5-a]pyrazine] | – | – | 166 | 68 | –
3 | C[C@@H]1Cn2nc(OCc3ccccc3)cc2CN1C(=O)c1ccc(F)cc1 [Example B7] | – | – | 813 | 62 | –
4 | CC(C)(C)OCC(=O)N1CCn2nc(OCc3ccccc3)cc2C1 [Example B21] | – | – | 631 | 53 | –
5 | CC(C)OCC(=O)N1CCn2nc(OCc3ccccc3)cc2C1 [Example B23] | – | – | 3240 | 34 | –
6 | CC(C)(C)NCC(=O)N1CCn2nc(OCc3ccccc3)cc2C1 [Example B25] | – | – | > 30200 | 20 | –
7 | CC(C)(C)CCC(=O)N1CCn2nc(OCc3ccccc3)cc2C1 [Example B26] | – | – | 589 | 59 | –
8 | CCOCC(=O)N1CCn2nc(OCc3ccccc3)cc2C1 [Example B27] | – | – | > 30200 | 17 | –
9 | O=C(c1cnccn1)N1CCn2nc(OCc3ccccc3)cc2C1 [Example B37] | – | – | > 10000 | 44 | –
10 | O=C(c1ccc(F)c(C(F)(F)F)c1)N1CCn2nc(OCc3ccccc3)cc2C1 [Example B39] | 51 | – | – | – | –
11 | O=C(c1ccc(Cl)cc1)N1CCn2nc(OCc3ccccc3)cc2C1 [Example B40] | – | – | 269 | 46 | –
12 | O=C(c1ccccc1C(F)(F)F)N1CCn2nc(OCc3ccccc3)cc2C1 [Example B41] | – | – | > 30200 | 25 | –
13 | O=C(c1ccc(Cl)c(Cl)c1)N1CCn2nc(OCc3ccccc3)cc2C1 [Example B42] | – | – | 1230 | 39 | –
14 | O=C(c1cccc(Cl)c1)N1CCn2nc(OCc3ccccc3)cc2C1 [Example B43] | – | – | 70.8 | 51 | –
15 | O=C(c1ccccc1Cl)N1CCn2nc(OCc3ccccc3)cc2C1 [Example B44] | – | – | 95.5 | 33 | –
16 | COc1ccc(C(=O)N2CCn3nc(OCc4ccccc4)cc3C2)cc1F [Example B45] | – | – | > 30200 | 19 | –
17 | N#Cc1ccc(C(=O)N2CCn3nc(OCc4ccccc4)cc3C2)c(F)c1 [Example B46] | – | – | > 30200 | 20 | –

Row | Molecule | Emax (%) [1] [%] | pEC50 [1] | EC50 [2] [nM] | Emax [1] [%] | EC50 (pEC50, H10H cell line expressing recombinant human mGluR5) [nM]
18 | O=C(c1cc(Cl)cc(Cl)c1)N1CCn2nc(OCc3ccccc3)cc2C1 [Example B47] | – | – | 110 | 25 | –
19 | CCOc1ccccc1C(=O)N1CCn2nc(OCc3ccccc3)cc2C1 [Example B48] | – | – | > 30200 | 13 | –
20 | O=C(c1ccc(F)c(F)c1)N1CCn2nc(OCc3ccccc3)cc2C1 [Example B49] | – | – | 692 | 57 | –
21 | O=C(c1ccccc1)N1CCn2nc(OCc3ccccc3)cc2C1 [Example B50] | – | – | 141 | 55 | –
22 | O=C(c1ncccn1)N1CCn2nc(OCc3ccccc3)cc2C1 [Example B51] | – | – | > 30200 | 26 | –
23 | O=C(c1cc[nH]n1)N1CCn2nc(OCc3ccccc3)cc2C1 [Example B52] | – | – | 2000 | 71 | –
24 | O=C(c1n[nH]c2ccccc12)N1CCn2nc(OCc3ccccc3)cc2C1 [Example B53] | – | – | 117 | 69 | –
25 | Cc1ccoc1C(=O)N1CCn2nc(OCc3ccccc3)cc2C1 [Example B54] | – | – | > 30200 | 20 | –
26 | O=C(c1ccco1)N1CCn2nc(OCc3ccccc3)cc2C1 [Example B55] | – | – | – | 55 | 324
27 | Cc1ccc(C(=O)N2CCn3nc(OCc4ccccc4)cc3C2)o1 [Example B56] | – | – | 562 | 49 | –
28 | O=C(c1ccc[nH]1)N1CCn2nc(OCc3ccccc3)cc2C1 [Example B57] | – | – | 1230 | 39 | –
29 | O=C(c1cnc[nH]1)N1CCn2nc(OCc3ccccc3)cc2C1 [Example B58] | – | – | > 30200 | 22 | –
30 | O=C(c1c[nH]c2ccccc12)N1CCn2nc(OCc3ccccc3)cc2C1 [Example B59] | – | – | 166 | 71 | –
31 | O=C(c1ccsc1)N1CCn2nc(OCc3ccccc3)cc2C1 [Example B60] | – | – | 275 | 61 | –
32 | O=C(c1ccccn1)N1CCn2nc(OCc3ccccc3)cc2C1 [Example B61] | – | – | 4270 | 46 | –
33 | O=C(c1ccncc1)N1CCn2nc(OCc3ccccc3)cc2C1 [Example B62] | – | – | 1860 | 20 | –
34 | O=C(c1cncc(F)c1)N1CCn2nc(OCc3ccccc3)cc2C1 [Example B63] | – | – | 2000 | 48 | –

Further lines, with some results ahead:

Row | Emax (%) [1] [%] | pEC50 [1] | EC50 [2] [nM] | Emax [1] [%] | Molecule | EC50 (pEC50, H10H cell line expressing recombinant human mGluR5) [nM]
35 | – | – | > 10000 | 38 | O=C(c1cccnc1)N1CCn2nc(OCc3ccccc3)cc2C1 [Example B64] | –
36 | – | – | > 10000 | 56 | O=C(c1ncc(F)cc1F)N1CCn2nc(OCc3ccccc3)cc2C1 [Example B65] | –
37 | – | – | 479 | 52 | O=C(CC1CCCC1)N1CCn2nc(OCc3ccccc3)cc2C1 [Example B67] | –
38 | – | – | 355 | 69 | CC(C)(C)CC(=O)N1CCn2nc(OCc3ccccc3)cc2C1 [Example B68] | –
39 | – | – | > 30200 | 16 | O=C(CC(F)(F)F)N1CCn2nc(OCc3ccccc3)cc2C1 [Example B69] | –
40 | – | – | > 30200 | 25 | O=C(CCC(F)(F)F)N1CCn2nc(OCc3ccccc3)cc2C1 [Example B70] | –
41 | – | – | 2340 | 30 | O=C(C1CC1c1ccccc1)N1CCn2nc(OCc3ccccc3)cc2C1 (stereo not drawn) [Example B71] | –
42 | – | – | 3800 | 34 | O=C(COCc1ccccc1)N1CCn2nc(OCc3ccccc3)cc2C1 [Example B72] | –
43 | – | – | > 30200 | 27 | CCC(C)C(=O)N1CCn2nc(OCc3ccccc3)cc2C1 (stereo not drawn) [Example B75] | –
44 | – | – | 1320 | 32 | Cn1cc(C(=O)N2CCn3nc(OCc4cccc(F)c4)cc3C2)c2ccccc21 [Example B79] | –
45 | – | – | 22.9 | 65 | Cn1c(Cl)ccc1C(=O)N1CCn2nc(OCc3cccc(F)c3)cc2C1 [Example B80, (5-chloro-1-methyl-1H-pyrrol-2-yl)-[2-(3-fluoro-benzyloxy)-6,7-dihydro-4H-pyrazolo[1,5-a]pyrazin-5-yl]-methanone] | –
46 | – | – | 25.1 | 69 | Cn1c(Cl)ccc1C(=O)N1CCn2nc(OCc3ccccc3)cc2C1 [Example B81] | –
47 | – | – | > 30200 | 15 | CO[C@](C(=O)N1CCn2nc(OCc3ccccc3)cc2C1)(c1ccccc1)C(F)(F)F [Example B87] | –
48 | – | – | 617 | 40 | CN(C)c1cccc(C(=O)N2CCn3nc(OCc4ccccc4)cc3C2)n1 [Example B88] | –
49 | – | – | 47.9 | 74 | Cn1c(Cl)ccc1C(=O)N1CCCn2nc(OCc3ccccc3)cc2C1 [Example B90] | –
50 | – | – | 3630 | 69 | C[C@H]1Cn2nc(OCc3ccccc3)cc2CN1C(=O)c1ccc(Cl)n1C [Example B91] | –
51 | – | – | 537 | 52 | Cn1ccc(C(=O)N2CCn3nc(OCc4cccc(F)c4)cc3C2)c1 [Example B92] | –
52 | – | – | 347 | 65 | Cn1cc(C(=O)N2CCn3nc(OCc4cccc(F)c4)cc3C2)cc1Cl [Example B93] | –
53 | – | – | > 30200 | 28 | CC(=O)N1CCn2nc(OCc3ccccc3)cc2C1 [Example B108] | –
